# Measured values taken from patent US20240116845A1, “INDENE COMPOUNDS, PHARMACEUTICAL COMPOSITIONS THEREOF, AND THEIR THERAPEUTIC APPLICATIONS” (NucMito Pharmaceuticals Co., Ltd., priority 2021, published 2024).
# Key:
# Assay type in all cases: cell-based
# [1] = tested on: alpha-smooth muscle actin (α-SMA); assay: Inhibition of TGF-β induced expression of alpha-smooth muscle actin in CFSC cells (western blot); details: compound at 10 μM, TGF-β (10 ng/mL), 24 hours
# How it was run: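 Rat CCl4-treated hepatic stellate (CFSC) cells in serum-free DMEM were given compound at 10 μM plus TGF-β 10 ng/mL for 24 h at 37 °C. α-SMA measured by western blot with β-actin, bands quantified densitometrically. Percent inhibition is the decrease in band intensity versus TGF-β alone.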
# [2] = tested on: HeLa (cervical cancer); assay: Antiproliferative activity, CCK-8 cell viability; details: Homo sapiens, 72 h, read-out: Inhibition of Cancerous Cells, HELA; for inhibition at 3.3 µM: compound concentration of 3.3 μM; for inhibition at 10 µM: compound concentration of 10 μM; for inhibition at 30 µM: compound concentration of 30 μM
# [3] = tested on: MDA-MB-231 (breast cancer); assay: Antiproliferative activity, CCK-8 cell viability; details: Homo sapiens, 72 h, read-out: Inhibition of Cancerous Cells, MDA-MB-231; for inhibition at 3.3 µM: compound concentration of 3.3 μM; for inhibition at 10 µM: compound concentration of 10 μM; for inhibition at 30 µM: compound concentration of 30 μM
# How it was run: (§1)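 Cells in DMEM with 10% FBS were treated with compound at 3.3, 10 or 30 μM for 72 h at 37°C. Viability was read by CCK-8 absorbance at 450 nm and expressed relative to DMSO-treated cells. Growth inhibition was binned as ≥50%, 30–50% or <30%.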
# [4] = tested on: B16F10 (malignant melanoma); assay: Antiproliferative activity, CCK-8 cell viability; details: Mus musculus, B16-F10, 72 h, read-out: Inhibition of Cancerous Cells, B16F10; for inhibition at 3.3 µM: compound concentration of 3.3 μM; for inhibition at 10 µM: compound concentration of 10 μM; for inhibition at 30 µM: compound concentration of 30 μM
# How it was run: as §1
# [5] = tested on: HepG2 (liver cancer); assay: Antiproliferative activity, CCK-8 cell viability; details: Homo sapiens, 72 h, read-out: Inhibition of Cancerous Cells, HepG2; for inhibition at 3.3 µM: compound concentration of 3.3 μM; for inhibition at 10 µM: compound concentration of 10 μM; for inhibition at 30 µM: compound concentration of 30 μM
# How it was run: as §1
# [6] = tested on: A431 (epidermoid carcinoma); assay: Antiproliferative activity, CCK-8 cell viability; details: Homo sapiens, A-431, 72 h, read-out: Inhibition of Cancerous Cells, A431; for inhibition at 3.3 µM: compound concentration of 3.3 μM; for inhibition at 10 µM: compound concentration of 10 μM; for inhibition at 30 µM: compound concentration of 30 μM
# How it was run: as §1
# [7] = tested on: SW480 (colon cancer); assay: Antiproliferative activity, CCK-8 cell viability; details: Homo sapiens, 72 h, read-out: Inhibition of Cancerous Cells, SW480; for inhibition at 3.3 µM: compound concentration of 3.3 μM; for inhibition at 10 µM: compound concentration of 10 μM; for inhibition at 30 µM: compound concentration of 30 μM
# How it was run: as §1
# [8] = tested on: A549 (lung adenocarcinoma); assay: Antiproliferative activity, CCK-8 cell viability; details: Homo sapiens, 72 h, read-out: Inhibition of Cancerous Cells, A549; for inhibition at 3.3 µM: compound concentration of 3.3 μM; for inhibition at 10 µM: compound concentration of 10 μM; for inhibition at 30 µM: compound concentration of 30 μM
SMILES,inhibition at 10 µM [1] [%],inhibition at 3.3 µM [2] [%],inhibition at 10 µM [2] [%],inhibition at 30 µM [2] [%],inhibition at 3.3 µM [3] [%],inhibition at 10 µM [3] [%],inhibition at 30 µM [3] [%],inhibition at 3.3 µM [4] [%],inhibition at 10 µM [4] [%],inhibition at 30 µM [4] [%],inhibition at 3.3 µM [5] [%],inhibition at 10 µM [5] [%],inhibition at 30 µM [5] [%],inhibition at 3.3 µM [6] [%],inhibition at 10 µM [6] [%],inhibition at 30 µM [6] [%],inhibition at 3.3 µM [7] [%],inhibition at 10 µM [7] [%],inhibition at 30 µM [7] [%],inhibition at 3.3 µM [8] [%],also measured
"CC1=C(CC(=O)O)c2cc(F)ccc2/C1=C/c1ccc(Oc2ccc(F)c(F)c2)cc1 [Compound E1, 2-[(1E)-5-Fluoro-2-methyl-1-({4-[3,4-difluorophenoxy]phenyl}methylidene)-1H-inden-3-yl]acetic acid]",≥ 80,30 to 50,≥ 50,≥ 50,≥ 50,≥ 50,≥ 50,< 30,30 to 50,≥ 50,≥ 50,≥ 50,≥ 50,30 to 50,≥ 50,≥ 50,≥ 50,≥ 50,≥ 50,30 to 50,inhibition at 10 µM [8]: ≥ 50%; inhibition at 30 µM [8]: ≥ 50%
"CC1=C(CC(=O)O)c2cc(F)cc(F)c2/C1=C/c1ccc(Oc2ccc(F)cc2)cc1 [Compound E4, 2-[(1E)-5,7-Difluoro-2-methyl-1-({4-[4-fluorophenoxy]phenyl}methylidene)-1H-inden-3-yl]acetic acid]",≥ 80,30 to 50,≥ 50,≥ 50,≥ 50,≥ 50,≥ 50,≥ 50,≥ 50,≥ 50,≥ 50,≥ 50,≥ 50,< 30,≥ 50,≥ 50,< 30,≥ 50,≥ 50,< 30,inhibition at 10 µM [8]: 30 to 50%; inhibition at 30 µM [8]: ≥ 50%
"CC1=C(CC(=O)O)c2cc(F)cc(F)c2/C1=C/c1cccc(Oc2ccccc2)c1 [Compound E7, 2-[(1E)-5,7-Difluoro-1-(3-(phenoxy)benzylidene)-2-methyl-1H-inden-3-yl]-acetic acid]",≥ 80,30 to 50,≥ 50,≥ 50,≥ 50,≥ 50,≥ 50,≥ 50,≥ 50,≥ 50,≥ 50,≥ 50,≥ 50,30 to 50,≥ 50,≥ 50,< 30,≥ 50,≥ 50,< 30,inhibition at 10 µM [8]: < 30%; inhibition at 30 µM [8]: ≥ 50%
